Source: US11884662B2, “N-1 branched cycloalkyl substituted imidazo[4,5-c]quinoline compounds, compositions, and methods” (3M INNOVATIVE PROPERTIES COMPANY, priority 2018, dated 2024)

How the values were obtained:
[1] = test system: Human peripheral blood mononuclear cells (PBMC); experiment: Cytokine Induction in Human Cells; assay type: cell-based; conditions: 21-24 hours culture, lowest concentration inducing at least 2× negative control; for MEC to Induce Cytokine IFN-alpha: IFN-alpha by ELISA; for MEC to Induce Cytokine IFN-gamma: IFN-gamma by multiplex bead assay; for MEC to Induce Cytokine TNF-alpha: TNF-alpha by multiplex bead assay
Experimental: Cytokine Induction in Human Cells
Whole blood was obtained from healthy human donors and collected by venipuncture into vacutainer tubes or syringes containing EDTA. Human peripheral blood mononuclear cells (PBMC) were purified from the whole blood by density gradient centrifugation. Histopaque 1077 (15 mL, Sigma, St. Louis, MO) was transferred to 6×50 mL sterile polypropylene conical tubes. The Histopaque was overlayed with 15-25 mL of blood diluted 1:2 in Hank's Balanced Salts Solution (HBSS) (Gibco, Life Technologies, Grand Island, NY). The tubes were then centrifuged at 1370 rpm for 30 minutes at 20° C., with no brake (400×g, GH 3.8A Rotor).
The interface (buffy coat) containing the PBMC was collected and placed in a new sterile 50 mL conical polypropylene centrifuge tube. The PBMC were mixed with an equal volume of HBSS (about 20 mL from the interface and about 20 mL of HBSS), and then centrifuged at 1090 rpm, 10 minutes, 20° C., with brake (270×g, GH 3.8A Rotor). After completing centrifugation, the cells were resuspended in 2-3 mL ACK Red blood cell lysis buffer (ammonium chloride potassium solution, Gibco, Life Technologies) and incubated for 2-5 minutes at 20° C. Next, HBSS (40 mL) was added to the cells, and the sample was centrifuged at 270×g for 10 minutes at 20° C. The supernatant was decanted, and the cell pellet was resuspended in 5 mL AIM V Medium (Gibco, Life Technologies). Cell aggregates and debris were removed by filtering the cell solution through a BD Falcon 70 micron nylon cell strainer (BD Biosciences, San Jose, CA).
The number of viable cells was determined by counting with a Miltenyi FACS instrument (Miltenyi Biotec Inc., San Diego, CA) or by using a hemacytometer. For determining cell viability with a hemacytometer, the cells were diluted 1/10 in 0.4% trypan blue and HBSS (specifically, 50 microliter of trypan blue+40 microliter of HBSS+10 microliter of cell solution were added to a microfuge tube and mixed). Ten microliters of the diluted cells were then applied to the hemacytometer, and the number of viable PBMC were determined by microscopy.
The PBMC sample was then resuspended in 96-well plates at a concentration of 8×10^5 cells/well in 0.1 mL of AIM-V medium. Each compound was solubilized in DMSO to create a 3 mM stock solution. The stock solution was then further diluted with AIM-V medium to prepare the serial dilutions. The diluted compound (100 microliters) was then transferred to the PBMCs to achieve a testing set with final compound concentrations of 30, 10, 3.3, 1.1, 0.37, 0.12, 0.04, 0.01 micromolar or a testing set with final compound concentrations of 100, 33.3, 11.1, 3.7, 1.2, and 0.4 micromolar. The plates also had both positive and negative controls. The negative control wells contained only AIM-V medium with no example compound. The positive control wells contained a control set of imiquimod serially diluted to concentrations of 30, 10, 3.3, 1.1, 0.37, 0.12, 0.04, 0.01 micromolar or a control set of imiquimod serially diluted to concentrations of 100, 33.3, 11.1, 3.7, 1.2, and 0.4 micromolar. The concentrations used in the control set were selected to match the concentrations used in the testing set. The plates were then cultured at 37° C./5% CO2 for 21-24 hours. Cell-free supernatants were harvested by centrifuging the 96-well plates at 2100 rpm, 23° C. for 10 minutes. Approximately 160 microliters of the supernatant was then stored in a NUNC 96-well plate, covered with the compression cap and stored at −80° C. until the cytokine analysis was done.
IFN-alpha cytokine levels (picograms/mL) were measured by ELISA (human IFN-alpha, pan specific, Mabtech, Cincinnati, OH). IFN-gamma and TNF-alpha levels (picograms/mL) were measured by multiplex bead assay (magnetic beads, R & D Systems Minneapolis, MN) according to the manufacturer's instructions. […]

[2] = test system: Human dermal adult fibroblast cells; experiment: Cell Viability Determination (resazurin); assay type: cell-based; conditions: human dermal adult fibroblasts, compound 200 micromolar, 24 hours, normalized to untreated vehicle control, n=3
Experimental: Cell Viability Determination
Each compound was individually dissolved in DMSO and then in Dulbecco's minimum essential cell culture medium (DMEM, Gibco, Life Technologies) containing 10% fetal bovine serum (Corning Life Sciences, Tewksbury, MA) and 1× antibiotic/antimycotic solution. The final DMSO concentration in a 200 micromolar compound concentration was 0.5%.
Human dermal adult fibroblast cells (ATCC, Manassas, VA) were seeded (7,500 cells/wells in a 96-well tissue culture polystyrene plate) in 100 microliters of DMEM cell culture medium containing 10% fetal bovine serum and 1× antibiotic/antimycotic solution. After approximately 18-24 hours of incubation in a humidified environment at 37° C. with 5% CO2, the wells were individually treated with one of the compounds in cell culture medium at a compound concentration of 200 micromolar or with 0.5% DMSO in cell culture medium as the vehicle (untreated) control. The cells were then incubated for 24 hours in a humidified environment at 37° C. with 5% CO2. Cell viability was determined using resazurin according to the procedure described by O'Brien, J. et al., European Journal of Biochemistry, 2000, 267(17): 5421-5426. Cell viability was normalized to the vehicle (untreated) cell control. In Table 14, the mean percent cell viability (n=3) is reported for the compounds of Examples 1, 2, 4, 5 and for 1-[(4-amino-1H-imidazo[4,5-c]quinoline-1-yl)methyl] cyclopentanol (the Comparative Example compound).

| Structure (SMILES) | MEC to Induce Cytokine IFN-alpha [1] | MEC to Induce Cytokine IFN-gamma [1] | MEC to Induce Cytokine TNF-alpha [1] | Mean Percent Cell Viability [2] |
| --- | --- | --- | --- | --- |
| C[C@H](n1cnc2c(N)nc3ccccc3c21)C1(O)CCCC1 [Example 2, 1-[(1S)-1-(4-aminoimidazo[4,5-c]quinolin-1-yl)ethyl]cyclopentanol] | >30 µM | >30 µM | >30 µM | 81% |
| C[C@@H](n1cnc2c(N)nc3ccccc3c21)C1(O)CC=CC1 [Example 3, 1-[(1R)-1-(4-aminoimidazo[4,5-c]quinolin-1-yl)ethyl]cyclopent-3-en-1-ol] | 3.3 µM | 3.3 µM | 3.3 µM | – |
| CC[C@H](n1cnc2c(N)nc3ccccc3c21)C1(O)CCCC1 [Example 5, 1-[(1S)-1-(4-aminoimidazo[4,5-c]quinolin-1-yl)propyl]cyclopentanol] | >30 µM | >30 µM | >30 µM | 78% |
| Nc1nc2ccccc2c2c1ncn2CC1(O)CCCC1 [Comparative Example, 1-[(4-amino-1H-imidazo[4,5-c]quinoline-1-yl)methyl]cyclopentanol, reference compound] | 10 µM | 10 µM | 10 µM | 2.1% |
| CC[C@@H](n1cnc2c(N)nc3ccccc3c21)C1(O)CCCC1 [Example 4, 1-[(1R)-1-(4-aminoimidazo[4,5-c]quinolin-1-yl)propyl]cyclopentanol] | 1.1 µM | 1.1 µM | 0.37 µM | 86% |
| CC[C@@H](n1cnc2c(N)nc3ccccc3c21)C1(O)CCCCC1 [Example 6, 1-[(1R)-1-(4-aminoimidazo[4,5-c]quinolin-1-yl)propyl]cyclohexanol] | 1.2 µM | 1.2 µM | 1.2 µM | – |
| C[C@@H](n1cnc2c(N)nc3ccccc3c21)C1(O)CCCC1 [Example 1, 1-[(1R)-1-(4-aminoimidazo[4,5-c]quinolin-1-yl)ethyl]cyclopentanol] | 3.3 µM | 3.3 µM | 3.3 µM | 80% |
